Measurements from patent US20190292155A1, “THERAPEUTIC INHIBITORY COMPOUNDS” (LifeSci Pharmaceuticals, Inc., priority 2016, published 2019).

molecular target: T1, human complement factor D (Homo sapiens, UniProt P00746); experiment: In vitro enzyme inhibition of human complement factor D (Z-Lys-SBzl/DTNB, A405); type: biochemical; conditions: biochemical assay, substrate Z-Lys-SBzl; read-out: CFD IC50
T1 construct: purchased R&D Systems 1824-SE
How it was run: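 Buffer 50 mM Tris/HCl pH 7.5, 1 M NaCl, 0.5% final DMSO; compounds pre-incubated with enzyme 5 min at room temperature, then Z-Lys-SBzl with DTNB added (each diluted to 200 μM before addition).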

T1 sequence (P00746 26-253): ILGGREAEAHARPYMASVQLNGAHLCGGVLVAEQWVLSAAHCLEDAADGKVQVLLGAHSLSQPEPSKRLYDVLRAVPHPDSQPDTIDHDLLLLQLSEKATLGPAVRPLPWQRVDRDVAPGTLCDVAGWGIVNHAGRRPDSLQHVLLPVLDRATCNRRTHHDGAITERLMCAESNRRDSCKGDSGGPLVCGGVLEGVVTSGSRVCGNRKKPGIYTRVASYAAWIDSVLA

| Structure (SMILES) | IC50 [µM] |
| --- | --- |
| N#Cc1ccc(Cl)c(F)c1CNC(=O)CN(C(=O)Cn1nc(C(N)=O)c2ccccc21)C1CC1 [Example 87, 1-(2-((2-((3-chloro-6-cyano-2-fluorobenzyl)amino)-2-oxoethyl)(cyclopropyl)amino)-2-oxoethyl)-1H-indazole-3-carboxamide] | 0.1 to 1 |
| NCc1ccc2c(C(N)=O)nn(CC(=O)N(CC(=O)NCc3cccc(Cl)c3F)C3CC3)c2c1 [Example 89, 6-(aminomethyl)-1-(2-((2-((3-chloro-2-fluorobenzyl)amino)-2-oxoethyl)(cyclopropyl)amino)-2-oxoethyl)-1H-indazole-3-carboxamide] | 1 to 10 |
| N#Cc1cc(Cl)c(F)c(CNC(=O)CN(C(=O)Cn2nc(C(N)=O)c3ccccc32)C2CC2)c1 [Example 90, 1-(2-((2-((3-chloro-5-cyano-2-fluorobenzyl)amino)-2-oxoethyl)(cyclopropyl)amino)-2-oxoethyl)-1H-indazole-3-carboxamide] | 1 to 10 |
| NC(=O)c1nn(CC(=O)N(CC(=O)NCc2cc(Cl)cc3[nH]ncc23)C2CC2)c2ccccc12 [Example 91, 1-(2-((2-(((6-chloro-1H-indazol-4-yl)methyl)amino)-2-oxoethyl)(cyclopropyl)amino)-2-oxoethyl)-1H-indazole-3-carboxamide] | 0.1 to 1 |
| NC(=O)c1nn(CC(=O)N(CC(=O)NCc2cccc(Cl)c2F)C2CC2)c2cc(C(F)(F)F)ccc12 [Example 94, 1-(2-((2-((3-chloro-2-fluorobenzyl)amino)-2-oxoethyl)(cyclopropyl)amino)-2-oxoethyl)-6-(trifluoromethyl)-1H-indazole-3-carboxamide] | 0.1 to 1 |
| NC(=O)c1nn(CC(=O)N(CC(=O)NCc2cccc(Cl)c2F)C2CC2)c2ccc(C(F)(F)F)cc12 [Example 95, 1-(2-((2-((3-chloro-2-fluorobenzyl)amino)-2-oxoethyl)(cyclopropyl)amino)-2-oxoethyl)-5-(trifluoromethyl)-1H-indazole-3-carboxamide] | 1 to 10 |
| N#Cc1ccc(CNC(=O)CN(C(=O)Cn2nc(C(N)=O)c3ccccc32)C2CC2)c(F)c1Cl [Example 96, 1-(2-((2-((3-chloro-4-cyano-2-fluorobenzyl)amino)-2-oxoethyl)(cyclopropyl)amino)-2-oxoethyl)-1H-indazole-3-carboxamide] | 1 to 10 |

Other lines, results leading:

| IC50 [µM] | Structure (SMILES) |
| --- | --- |
| 0.1 to 1 | NC(=O)c1nn(CC(=O)N(CC(=O)NCc2cccc(Cl)c2F)C2CC2)c2c(F)cccc12 [Example 88, 1-(2-((2-((3-chloro-2-fluorobenzyl)amino)-2-oxoethyl)(cyclopropyl)amino)-2-oxoethyl)-7-fluoro-1H-indazole-3-carboxamide] |
| 0.1 to 1 | N#Cc1ccc2c(c1)c(C(N)=O)nn2CC(=O)N(CC(=O)NCc1cccc(Cl)c1F)C1CC1 [Example 92, 1-(2-((2-((3-chloro-2-fluorobenzyl)amino)-2-oxoethyl)(cyclopropyl)amino)-2-oxoethyl)-5-cyano-1H-indazole-3-carboxamide] |
| 0.1 to 1 | NC(=O)c1ccc2c(c1)c(C(N)=O)nn2CC(=O)N(CC(=O)NCc1cccc(Cl)c1F)C1CC1 [Example 93, 1-(2-((2-((3-chloro-2-fluorobenzyl)amino)-2-oxoethyl)(cyclopropyl)amino)-2-oxoethyl)-1H-indazole-3,5-dicarboxamide] |
| 1 to 10 | NC(=O)c1nn(CC(=O)N(CC(=O)NCc2cccc(Cl)c2F)C2CC2)c2cccc(F)c12 [Example 97, 1-(2-((2-((3-chloro-2-fluorobenzyl)amino)-2-oxoethyl)(cyclopropyl)amino)-2-oxoethyl)-4-fluoro-1H-indazole-3-carboxamide] |
| 1 to 10 | O=C(CN(C(=O)Cn1nc(-c2ncc[nH]2)c2ccccc21)C1CC1)NCc1cccc(Cl)c1F [Example 98, 2-(3-(1H-imidazol-2-yl)-1H-indazol-1-yl)-N-(2-((3-chloro-2-fluorobenzyl)amino)-2-oxoethyl)-N-cyclopropylacetamide] |
